Assay results reported in patent US20260364186A1, “Chemical Conjugates, Compositions, and Methods of Preparation and Use Thereof” (Transfection Holdings Limited, priority 2022, published 2026).
Entries after “also recorded” stand apart in the source; their conditions may differ.

How the values were obtained:
Assay type in all cases: cell-based, human
[1] = test system: NZM11 melanoma cancer cell line; test: FACS uptake of BODIPY FL conjugates, 50 nM, 5 min (Example 1)
Experimental: FIG. 1. Conjugate compounds coupled to BODIPY FL were tested for uptake using 50 nM each conjugate and 5 minute incubation with HEM (human epidermal melanocytes) and melanoma cell line NZM11 (BRAF V600E mutant metastatic melanoma). Mean fluorescent intensities (MFI). For these tests, n=300-500, mean±SD. Results were from a single experiment done in triplicate. Cells were sorted by FACS.
Materials and methods: NZM11 is an adherent metastatic melanoma cell derived from a patient with a subcutaneous lesion on their mid back. This human metastatic melanoma is identified with code CBA-1398 from Cell bank Australia. […] Cells of NZM11 diluted in MEMα media and cells of HEMnDP (primary melanocyte cell line) diluted in media 254 were left to settle in 96-wells microplate for 48 hours. 10 μL of 10 mM stock solutions in DMSO from 138 and pantothenic acid/pantothenic acid derivatives coupled to BODIPY were diluted with HBSS to afford 100 nM solution. Then, 100 nM compounds and DMSO solutions were diluted 1:1 with MEMα media for NZM11 and media 254 for HEMnDP to afford 50 nM solutions. After the 48 hour settle time, media was removed from the cells and 200 μL of 50 nM media solutions were poured to each well and incubated for 5 minutes at 37 °C. […] The FACS results output represented the mean of the fluorescence intensities (in arbitrary units) measured for cells sorted in every sample

[2] = test system: NZM40 (NRAS Q16H) melanoma cell line; test: Sulforhodamine B (SRB) assay of proliferation (Example 7); conditions: 1 μM, 72 h
Experimental: FIG. 7: The 124 conjugate was tested for toxicity using 1 μM final concentration and 72 hour incubation with melanoma cell line NZM40 (NRAS Q16H mutant metastatic melanoma). Cell densities were calculated according with sulforhodamine B assay (SRB assay), absorbance at 515 nm. Cells images of DMSO control and 124 were taken at 24, 48 and 72 h through brightfield using conventional microscope. Results represents a single experiment done in a single sample.
Materials and methods: NZM40 cell line is described above. 1×10^6 NZM40 cells diluted in MEMα media were added to 2×10 cm plates and left to settle for 24 hours. After 24 hour settle period, media was removed from cells and 9900 μL fresh MEMα media added to each plate. 100 μL of DMSO were added to control plate and 100 μL [100 μM 124 in DMSO] were added to treatment plate to afford a final concentration of 1 μM 124. Cells were incubated at 37 °C and 5% 02 for 72 hours and cell images were taken every 24 hours. After 72 hour incubation, sulforhodamine B (SRB) assay was performed to compare final cell density. For this, 2.5 mL of cold 50% (w/v) TCA were added to DMSO (control) and 124 plates. Cells were incubated for 1 hour in TCA at 4 °C. […] The 96 well plate was analysed on plate reader, at wavelength of 515 nm. Results represent the absorbance of cells without dilution, 1:2 dilution, 1:4 dilution and 1:8 dilution.

Jurkat cells = test: Flow cytometry time course of uptake (Example 12); conditions: 200 nM
Experimental: FIG. 12: Time course of uptake for compounds 124, 126, and 132 at 200 nM after 5, 30 or 60 minute incubation with Jurkat cells. Mean fluorescent intensities (MFI). 1,000 cells were sorted by FACS. Bars represent mean±SD. Results represents a single experiment done in triplicate.
Materials and methods: For this study, 7.7×10^5 Jurkat cells were centrifuged for 5 minutes at 2500 RPM. The supernatant was removed and the cells were diluted in RPMI media (supplemented with 1% FBS+1% penicillin-streptomycin) to 400 cells/μL. Next, 28 μL of 100 μM stock solutions from compound 124, 126, or 132 were diluted with 6972 μL of RPMI media (supplemented with 1% FBS+1% penicillin-streptomycin) to give a 400 nM solution. Following this, 250 μL of conjugate solutions (giving a 200 nM final concentration) and 250 μL of cell suspensions were then added to each well in a 96 well plate. In addition, 250 μL of media only was added to the DMSO control wells. Incubation was carried out for 5, 30 and 60 minutes at 37 °C in triplicate wells for each compound and time point.
After incubation, cells were centrifuged for 1.5 minutes at 5000 RCF. Supernatant was removed and the cell pellet re-suspended in 200 μL fresh RPMI media, transferred to 96 well-plate and each cell suspension analysed by flow cytometry. Flow cytometry results represent the mean of the fluorescence intensities (in arbitrary units) measured for cells sorted in every sample.

CC1=CC(C)=[N+]2C1=Cc1ccc(CCCn3cc(CCNC(=O)/C=C/NC(=O)[C@H](O)C(C)(C)CO)nn3)n1[B-]2(F)F [Compound 124]
uptake (fluorescence intensities) [1]: significant uptake; also recorded: highest intensities; also recorded: best targeting activity, with high uptake into cancer cells
effect on proliferation [2]: comparable proliferation to DMSO control cells; also recorded: no significant difference on proliferation; also recorded: little to no effect on proliferation
morphology under microscope [2]: do not exhibit significant changes on morphology
uptake, times higher than DMSO control (Jurkat cells; 5 minutes): 4 times
uptake increase compared to DMSO control (Jurkat cells; 30 minutes): ten
uptake increase compared to DMSO control (Jurkat cells; 60 minutes): fourteen
uptake, in words (Jurkat cells; 5, 30, 60 minutes): highest uptake at every timepoint; also recorded: selective uptake
